According to patent US20250381117A1 (MARY KAY INC., priority 2024, published 2025):
Read-outs that look alike come from different tables or passages of the source.

Tests used:
[1] = Solubility Analyses (Example 1): dissolution in water; assay type: physicochemical
[2] = at 25° C., cited from earlier work

- dissolution in water ([1]; melatonin 1.2% (w/w) in the absence of caffeine): did not completely dissolve
- dissolution in water ([1]; melatonin 2% (w/w) in the absence of caffeine): did not dissolve completely
Compound: COc1ccc2[nH]cc(CCNC(C)=O)c2c1 [melatonin]
- solubility in water [2]: approximately 0.01 g/100 mL
- solubility in water ([2]; same value given in percent): approximately 0.01%
